Reference: patent publication US9757408B2 (Hayashibara Co., Ltd., priority 2010, dated 2017)
Marks after values point to notes of the source that are not given here.

Experiments:
[1] = test system: mice with bacterial shock induced by LPS; test: LPS bacterial shock mice, survival, ANO, adenosine or inosine i.v. (Experiment 9); assay type: in vivo, BALB/c mice; conditions: LPS 18 mg/kg i.p.
Procedure: An LPS specimen derived from E. coli (055:B5), commercialized by Sigma-Aldrich Corporation, St. Louis, Mo. USA, was dissolved in PBS and intraperitoneally administered to all the seven mice in the four groups at a dose of 18 mg/kg body weight. […] Seven mice in the remaining one group were intravenously administered with PBS as a control in a volume of 0.2 mL/head (Experiment group 1). For each group, the survival number of mice was confirmed up to 7 to 43 hours after administering LPS and the survival rate (%) of mice in each group was determined.

[2] = test system: mouse with severe acute pancreatitis induced by choline-deficient ethionine-added feed; test: Severe acute pancreatitis induced by choline-deficient ethionine-added feed, survival (Experiment 15); assay type: in vivo, CD1(ICR) mice
Source text: After seven days of a preliminary breeding, the mice were fasted for one day and allowed to freely take a choline-deficient ethionine-added feed, produced by Oriental Yeast Co., Ltd., Tokyo, Japan, for three days from the next day. Thereafter, the mice were fed on normal feed again and then fed on the choline-deficient ethionine-added feed. […] Eight mice in the remaining one group as a control were orally administered through a gastric tube with distilled water twice a day every morning and evening in a liquid volume of 0.2 mL/head/shot from the initiation of fasting. The survival number of mice in each group was macroscopically confirmed up to seven days from the initiation of taking the choline-deficient ethionine-added feed, and the survival rate (%) of mice in each group was determined. The survival rate (%) of mice was determined similarly as in Experiment 1.

[3] = test system: picryl chloride-sensitized mice; test: Picryl chloride-sensitized mice atopic dermatitis, skin score (Experiment 16); assay type: in vivo, NC/Nga mice; conditions: for Skin score, 21 days after the day of sensitizing with picryl chloride: gel on dorsal skin twice a day (ANO 14 mg/mL, AN or IN 13 mg/mL, prednisolone 6.7 mg/mL from 3rd induction week), day 21; for Skin score, 24 days after the day of sensitizing with picryl chloride / Skin score, 28 days after the day of sensitizing with picryl chloride / Skin score, 31 days after the day of sensitizing with picryl chloride / Skin score, 35 days after the day of sensitizing with picryl chloride / Skin score, 39 days after the day of sensitizing with picryl chloride / Skin score, 42 days after the day of sensitizing with picryl chloride / Skin score, 45 days after the day of sensitizing with picryl chloride: gel on dorsal skin twice a day (ANO 14 mg/mL, AN or IN 13 mg/mL, prednisolone 6.7 mg/mL); for Skin score, 24 days after the day of sensitizing with picryl chloride: day 24; for Skin score, 28 days after the day of sensitizing with picryl chloride: day 28; for Skin score, 31 days after the day of sensitizing with picryl chloride: day 31; for Skin score, 35 days after the day of sensitizing with picryl chloride: day 35; for Skin score, 39 days after the day of sensitizing with picryl chloride: day 39; for Skin score, 42 days after the day of sensitizing with picryl chloride: day 42; for Skin score, 45 days after the day of sensitizing with picryl chloride: day 45
Source text: (§1) The results are in Table 19 in parallel.

[4] = test system: IL-6 production of spleen cells; test: IL-6 production of spleen cells stimulated with anti-CD3 antibody, from gel-treated mice (Experiment 16); assay type: in vivo, NC/Nga mice; conditions: for production level of IL-6 of spleen cells stimulated with the anti-CD3 antibody: compared to mice applied with gel prepared by adding refined water (Experiment group 1); for Content of IL-6: supernatant of spleen cells stimulated with anti-CD3 antibody, picryl chloride-sensitized mice applied with gel
Procedure: On Friday of the 6th week of the induction (46th day after initiating the application), all the mice were sacrificed, followed by isolating their spleens and collecting spleen cells in usual manner. […] To each well 2 μg/mL of “Purified Mouse CD3ε Monoclonal Antibody”, a product name of an anti-CD3 antibody, commercialized by Cosmo Bio Co., Ltd., Tokyo, Japan, was added, and the cells were incubated at 37° C. for three days in a 5% v/v CO2 incubator, followed by assaying the levels of cytokines in each supernatant thereof.
as §1

[5] = test system: IL-1α production from NHEK cells; test: IL-1α production from NHEK cells irradiated with ultraviolet B (Experiment 17); assay type: cell-based, human; conditions: for IL-1α: NHEK cells, stimulation by ultraviolet rays; for production of IL-1α from NHEK cells augmented by ultraviolet rays: UVB 40 mJ/cm^2, supernatant at six hours
Procedure: (§2) “CELLMATRIX TYPE IV”, a product name of collagen for tissue culture commercialized by Nitta Gelatin Inc., Osaka, Japan, which had been diluted with PBS(K-) by 10 times, was previously placed in “FALCON 35-3001”, a product name of 35 mm petri dish commercialized by Becton Dickinson and Company, NJ, USA, in an amount of 1 mL/plate, and then allowed to stand at ambient temperature for 10 min, followed by removing an excessive amount of CELLMATRIX, drying the petri dish in air, and washing it thrice with PBS(K-). […] The cells were cultured at 37° C. in a 5% v/v CO2 incubator. On the 2nd and 4th days after the cell inoculation, the medium was replaced with EpiLife medium free of EDGS (1 mL/plate). On the 5th day after the cell inoculation, the supernatant was removed, and the petri dish was washed twice by adding 1 mL/petri dish of Hanks' balanced salt solution (called “HBSS (−) buffer”, hereinafter). Further, 2 mL/petri dish of HBSS (−) buffer was added to the petri dish which was then placed in the position 15 cm apart from an ultraviolet ray light source and irradiated with 40 mJ/cm^2 of ultraviolet B radiation. […] As an ultraviolet ray light source, “NS-8F”, a light source for actual use commercialized by Sanwa Medical Co., Ltd., Okayama, Japan, equipped with an ultraviolet B radiation lamp was used, and the radiation dose was measured on “UVR-305/365D (II)”, an ultraviolet ray meter commercialized by Topcon Corporation, Tokyo, Japan. TNF-α was assayed by the same method as in Experiment 2. The remaining other cytokines were assayed with an IL-1α assay kit, commercialized by R & D Systems Inc., MN, USA, and an IL-8 assay kit commercialized by BioLegend, CA, USA.

[6] = test system: IL-8 production from NHEK cells; test: IL-8 production from NHEK cells irradiated with ultraviolet B (Experiment 17); assay type: cell-based, human; conditions: for IL-8: NHEK cells, stimulation by ultraviolet rays; for production of IL-8 from NHEK cells induced by ultraviolet rays: UVB 40 mJ/cm^2, supernatant at six hours
Procedure: as §2

[7] = test system: IL-6 production from mouse intraperitoneal macrophages; test: IC50 for IL-6 production from mouse macrophages, LPS + IFN-γ (Experiment 19); assay type: cell-based; conditions: for IC50: Mus musculus, Macrophage, 20 h, read-out: IC50 Concentration IL-6
Source text: After completion of the culture, the supernatant in each well was collected and assayed for cytokines and prostaglandin E2 (called “PGE2”, hereinafter) with ELISA.

[8] = oral 124 mg/kg body weight/shot twice a day
[9] = oral 46 mg/kg body weight/shot twice a day
[10] = oral 139 mg/kg body weight/shot twice a day

Nc1ncnc2c1ncn2[C@@H]1O[C@H](CO)[C@@H](O)[C@H]1O [AN, adenosine]
Survival rate (%) of mice, 7 Hours ([1]; 127 mg/kg i.v. simultaneously): 100% | Survival rate (%) of mice, 19 Hours ([1]; 127 mg/kg i.v. simultaneously): 20% | Survival rate (%) of mice, 26 Hours ([1]; 127 mg/kg i.v. simultaneously): 0% | Survival rate (%) of mice, 43 Hours ([1]; 127 mg/kg i.v. simultaneously): 0% | Survival rate (%) of mice, 48 Hours [2, 8]: 100.0% | Survival rate (%) of mice, 70 Hours [2, 8]: 20.0% | Survival rate (%) of mice, 78 Hours [2, 8]: 50.0% | Survival rate (%) of mice, 94 Hours [2, 8]: 25.0% | Survival rate (%) of mice, 102 Hours [2, 8]: 12.5% | Survival rate (%) of mice, 144 Hours [2, 8]: 12.5% | Skin score, 21 days after the day of sensitizing with picryl chloride [3]: 0.50 | Skin score, 24 days after the day of sensitizing with picryl chloride [3]: 0.50 | Skin score, 28 days after the day of sensitizing with picryl chloride [3]: 2.75 | Skin score, 31 days after the day of sensitizing with picryl chloride [3]: 3.55 | Skin score, 35 days after the day of sensitizing with picryl chloride [3]: 5.56 | Skin score, 39 days after the day of sensitizing with picryl chloride [3]: 5.78 | Skin score, 42 days after the day of sensitizing with picryl chloride [3]: 6.22 | Skin score, 45 days after the day of sensitizing with picryl chloride [3]: 5.50 | production level of IL-6 of spleen cells stimulated with the anti-CD3 antibody [4]: showed no difference | Content of IL-6 [4]: 192 ng/mL | IL-1α ([5]; 1 μM): 243 pg/mL | IL-1α ([5]; 5 μM): 244 pg/mL | IL-1α ([5]; 10 μM): 239 pg/mL | production of IL-1α from NHEK cells augmented by ultraviolet rays [5]: did not influence | IL-8 ([6]; 1 μM): 177 pg/mL | IL-8 ([6]; 5 μM): 172 pg/mL | IL-8 ([6]; 10 μM): 175 pg/mL | production of IL-8 from NHEK cells induced by ultraviolet rays [6]: did not influence | IC50 [7]: 50.1 µM

Nc1c2ncn([C@@H]3O[C@H](CO)[C@@H](O)[C@H]3O)c2nc[n+]1[O-] [ANO, adenosine N1-oxide]
Survival rate (%) of mice, 7 Hours ([1]; 135 mg/kg i.v. simultaneously): 100% | Survival rate (%) of mice, 19 Hours ([1]; 135 mg/kg i.v. simultaneously): 80% | Survival rate (%) of mice, 26 Hours ([1]; 135 mg/kg i.v. simultaneously): 80% | Survival rate (%) of mice, 43 Hours ([1]; 135 mg/kg i.v. simultaneously): 80% | Survival rate (%) of mice, 48 Hours [2, 9]: 100.0% | Survival rate (%) of mice, 70 Hours [2, 9]: 100.0% | Survival rate (%) of mice, 78 Hours [2, 9]: 50.0% | Survival rate (%) of mice, 94 Hours [2, 9]: 25.0% | Survival rate (%) of mice, 102 Hours [2, 9]: 12.5% | Survival rate (%) of mice, 144 Hours [2, 9]: 12.5% | Survival rate (%) of mice, 48 Hours [2, 10]: 100.0% | Survival rate (%) of mice, 70 Hours [2, 10]: 87.5% | Survival rate (%) of mice, 78 Hours [2, 10]: 75.0% | Survival rate (%) of mice, 94 Hours [2, 10]: 75.0% | Survival rate (%) of mice, 102 Hours [2, 10]: 75.0% | Survival rate (%) of mice, 144 Hours [2, 10]: 75.0% | Skin score, 21 days after the day of sensitizing with picryl chloride [3]: 0.75 | Skin score, 24 days after the day of sensitizing with picryl chloride [3]: 1.00 | Skin score, 28 days after the day of sensitizing with picryl chloride [3]: 2.25 | Skin score, 31 days after the day of sensitizing with picryl chloride [3]: 3.38 | Skin score, 35 days after the day of sensitizing with picryl chloride [3]: 4.50 | Skin score, 39 days after the day of sensitizing with picryl chloride [3]: 3.58* | Skin score, 42 days after the day of sensitizing with picryl chloride [3]: 4.38* | Skin score, 45 days after the day of sensitizing with picryl chloride [3]: 3.63* | recovery of skin wounds in the inflammation-induced part ([3]; picryl chloride-sensitized NC/Nga mice, gel application): cure/improvement of wounds induced by inflammation was observed | production level of IL-6 of spleen cells stimulated with the anti-CD3 antibody [4]: significantly lower | Content of IL-6 [4]: 129* ng/mL | IL-1α ([5]; 1 μM): 203 pg/mL | IL-1α ([5]; 5 μM): 173 pg/mL | IL-1α ([5]; 10 μM): 140 pg/mL | production of IL-1α from NHEK cells augmented by ultraviolet rays [5]: inhibited | IL-8 ([6]; 1 μM): 107 pg/mL | IL-8 ([6]; 5 μM): 89 pg/mL | IL-8 ([6]; 10 μM): 51 pg/mL | production of IL-8 from NHEK cells induced by ultraviolet rays [6]: inhibited | IC50 [7]: 0.9 µM | inhibition of the production of IL-6 (in words) ([7]; mouse intraperitoneal macrophages stimulated with LPS and IFN-γ): strongly inhibited

OC[C@H]1O[C@@H](n2cnc3c(O)ncnc32)[C@H](O)[C@@H]1O [IN, inosine]
Survival rate (%) of mice, 7 Hours ([1]; 127 mg/kg i.v. simultaneously): 100% | Survival rate (%) of mice, 19 Hours ([1]; 127 mg/kg i.v. simultaneously): 60% | Survival rate (%) of mice, 26 Hours ([1]; 127 mg/kg i.v. simultaneously): 40% | Survival rate (%) of mice, 43 Hours ([1]; 127 mg/kg i.v. simultaneously): 20% | Survival rate (%) of mice, 48 Hours [2, 8]: 100.0% | Survival rate (%) of mice, 70 Hours [2, 8]: 60.0% | Survival rate (%) of mice, 78 Hours [2, 8]: 62.5% | Survival rate (%) of mice, 94 Hours [2, 8]: 50.0% | Survival rate (%) of mice, 102 Hours [2, 8]: 25.0% | Survival rate (%) of mice, 144 Hours [2, 8]: 12.5% | Skin score, 21 days after the day of sensitizing with picryl chloride [3]: 0.50 | Skin score, 24 days after the day of sensitizing with picryl chloride [3]: 0.50 | Skin score, 28 days after the day of sensitizing with picryl chloride [3]: 2.50 | Skin score, 31 days after the day of sensitizing with picryl chloride [3]: 3.22 | Skin score, 35 days after the day of sensitizing with picryl chloride [3]: 5.20 | Skin score, 39 days after the day of sensitizing with picryl chloride [3]: 5.66 | Skin score, 42 days after the day of sensitizing with picryl chloride [3]: 6.00 | Skin score, 45 days after the day of sensitizing with picryl chloride [3]: 5.43 | production level of IL-6 of spleen cells stimulated with the anti-CD3 antibody [4]: showed no difference | Content of IL-6 [4]: 150 ng/mL | IL-1α ([5]; 1 μM): 246 pg/mL | IL-1α ([5]; 5 μM): 243 pg/mL | IL-1α ([5]; 10 μM): 228 pg/mL | production of IL-1α from NHEK cells augmented by ultraviolet rays [5]: did not influence | IL-8 ([6]; 1 μM): 166 pg/mL | IL-8 ([6]; 5 μM): 169 pg/mL | IL-8 ([6]; 10 μM): 140 pg/mL | production of IL-8 from NHEK cells induced by ultraviolet rays [6]: did not influence | IC50 Concentration IL-6 ([7]; mouse macrophages, LPS and IFN-γ, 20 hours): Enhanced
